In US20080287445A1, “Prokineticin 2 receptor antagonists” (priority 2005, published 2008):
Values joined by “and” are separate entries in the source; they are usually repeats but may differ in a detail not shown here. Equal entries are not always repeated.

Molecular target: T1, GPR73 (prokineticin 1 receptor) (Homo sapiens, UniProt Q8TCW9)
T1 construct: expressed in transfected cells; host or cells: HEK 293
Test: PK1 functional assay: Ca2+ mobilization screening for PK1 antagonists on the FLIPR
Assay type: cell-based
Conditions: HEK 293 GPR73 cells, multiple values = multiple testing; for inhibition at 10 µM: HEK293, 10 μM compound, read-out: Ca^2+ Mobilization % Inh @ 10 μM; for IC50: PK1 ligand preparation at its EC50, read-out: Ca^2+ Mobilization IC50; for Ca^2+ Mobilization % Inh @ 10 μM: 10 μM compound
Experimental: At a time of 24 h prior to running the assay, in cell culture media (DMEM containing high Glucose and L-glutamine, 10% FBS, 1% Pen/Streptomycin, 1% Sodium Pyruvate, 20 mM HEPES, Zeocin 200 mg/L), 100 μL of 1.3*10^6/ml HEK 293 GPR73 (prokineticin 1 receptor) expressing cells were plated in a 96 well poly-d-lysine coated plate (Costar), and incubated at 37 C and 5% CO2. On the day in which the assay was run, the media was removed and 200 μL of 5× Calcium Plus Dye (Molecular Devices) which was previously resuspended with 200 mL of assay buffer [HBSS w/Ca^2+ and Mg^2+ w/o phenol red, 20 mM HEPES, 0.1% BSA, 10 mL probenecid (710 mg probenecid in 5 mL of 1N NaOH, to which was then added 5 mL HBSS containing 20 mM HEPES)] was added to each well of the 96-well plate. The plate was incubated at 37 C and 5% CO2 for 30 min in dark. The plate was removed and allowed to reach RT for 15 min in the dark. The assay was then run on the FLIPR. In Brief: base line read for 1 min, compound added (25 μL) and incubated for 4 min, 15 seconds, PK1 ligand preparation added (25 μL) for a final concentration of a previously determined EC50 and fluorescence was counted for 1 min, 45 seconds. Baseline is described as the amount of relative fluorescence read when buffer alone is added to cells. Baseline was subtracted from all wells. Percent of control was calculated as follows:
(Baseline subtracted well value is divided by baseline subtracted max value)*100. Percent inhibition is 100 minus the percent of control value.
The IC50 is defined as the amount of a given compound required to inhibit 50% of the maximum signal that is generated by the concentration of PK1 preparation used in our assay. IC50 values were calculated using GraphPad Prism.

T1 sequence (Q8TCW9 whole entry, species assumed): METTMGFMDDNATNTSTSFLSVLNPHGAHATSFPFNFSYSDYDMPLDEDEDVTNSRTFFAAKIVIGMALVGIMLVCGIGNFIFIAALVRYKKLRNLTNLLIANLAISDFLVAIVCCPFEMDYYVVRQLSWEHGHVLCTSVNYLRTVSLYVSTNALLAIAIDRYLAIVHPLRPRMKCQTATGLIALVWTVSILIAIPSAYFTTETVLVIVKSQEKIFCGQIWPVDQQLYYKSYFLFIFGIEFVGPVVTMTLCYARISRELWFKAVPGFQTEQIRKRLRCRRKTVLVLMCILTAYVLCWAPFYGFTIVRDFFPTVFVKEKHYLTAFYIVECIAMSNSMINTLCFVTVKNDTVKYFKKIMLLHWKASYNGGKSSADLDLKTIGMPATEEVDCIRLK

Structure (SMILES)	inhibition at 10 µM	IC50	Ca^2+ Mobilization % Inh @ 10 μM
COc1ccc(Cn2c(NCCc3ccccn3)nc(=O)n(Cc3ccc(Cl)c(Cl)c3)c2=O)cc1 [Cpd 1]	37%	> 10000 nM	–
COc1ccc(Cn2c(NCc3cccnc3)nc(=O)n(Cc3ccc(Cl)c(Cl)c3)c2=O)cc1 [Cpd 2]	47%	> 10000 nM	–
COc1ccc(Cn2c(NCc3ccc(N)nc3)nc(=O)n(Cc3ccc(Cl)cc3)c2=O)cc1 [Cpd 5]	81%	1120 nM	–
COc1ccc(Cn2c(CNCc3cccnc3N)cc(=O)n(Cc3ccc(OC)cc3)c2=O)cc1 [Cpd 7, 6-{[(2-Amino-pyridin-3-ylmethyl)-amino]-methyl}-1,3-bis-(4-methoxy-benzyl)-1H-pyrimidine-2,4-dione]	60%	6200 nM	–
COc1ccc(Cn2c(NCc3cccnc3N)nc(=O)n(Cc3ccc(F)cc3)c2=O)cc1 [Cpd 8]	89%	535 nM and 669 nM	86%
COc1ccc(Cn2c(NCCc3cccnc3N)nc(=O)n(Cc3ccc(F)cc3)c2=O)cc1 [Cpd 10]	82%	1250 nM	–
COc1ccc(Cn2c(NCc3cccnc3N3CCCC3)nc(=O)n(Cc3ccc(F)cc3)c2=O)cc1 [Cpd 11]	54%	6790 nM	–
COc1ccc(Cn2c(NCc3cccnc3N3CCNCC3)nc(=O)n(Cc3ccc(OC)cc3)c2=O)cc1 [Cpd 12]	74%	1290 nM	–
COc1ccc(Cn2c(NCc3cccnc3N3CCCCC3)nc(=O)n(Cc3ccc(OC)cc3)c2=O)cc1 [Cpd 13]	72%	544 nM	–
CNc1ncccc1CNc1nc(=O)n(Cc2ccc(F)cc2)c(=O)n1Cc1ccc(OC)cc1 [Cpd 14]	90%	793 nM	–
COc1ccc(Cn2c(NCc3cccnc3N3CCOCC3)nc(=O)n(Cc3ccc(F)cc3)c2=O)cc1 [Cpd 17]	73%	2430 nM	–
COc1ccc(Cn2c(NCc3cccnc3N3CCSCC3)nc(=O)n(Cc3ccc(F)cc3)c2=O)cc1 [Cpd 18]	58%	5480 nM	–
CCNc1ncccc1CNc1nc(=O)n(Cc2ccc(F)cc2)c(=O)n1Cc1ccc(OC)cc1 [Cpd 19]	83%	885 nM	–
COc1ccc(Cn2c(NCc3ccc4c(n3)NCCC4)nc(=O)n(Cc3ccc(F)cc3)c2=O)cc1 [Cpd 21, 3-(4-Fluoro-benzyl)-1-(4-methoxy-benzyl)-6-[(5,6,7,8-tetrahydro-[1,8]naphthyridin-2-ylmethyl)-amino]-1H-[1,3,5]triazine-2,4-dione]	85%	656 nM	–
COc1ccc(Cn2c(NCc3cnc(C)cc3C)nc(=O)n(Cc3ccc(OC)cc3)c2=O)cc1 [Cpd 22, 6-[(4,6-Dimethyl-pyridin-3-ylmethyl)-amino]-1,3-bis-(4-methoxy-benzyl)-1H-[1,3,5]triazine-2,4-dione]	88%	–	96% and 97%
COc1ccc(Cn2c(NCc3ccc(-c4ccc(F)cc4)nc3)nc(=O)n(Cc3ccc(OC)cc3)c2=O)cc1 [Cpd 25]	89%	2740 nM	–
COCCNc1ncccc1CNc1nc(=O)n(Cc2ccc(F)cc2)c(=O)n1Cc1ccc(OC)cc1 [Cpd 28, 3-(4-Fluoro-benzyl)-1-(4-methoxy-benzyl)-6-{[2-(2-methoxy-ethylamino)-pyridin-3-ylmethyl]-amino}-1H-[1,3,5]triazine-2,4-dione]	85%	–	90% and 91%
COc1ccc(Cn2c(NCc3cccnc3NCCN)nc(=O)n(Cc3ccc(F)cc3)c2=O)cc1 [Cpd 30]	68%	1240 nM	–
COc1ccc(Cn2c(NCc3cccnc3NC3CCCCC3)nc(=O)n(Cc3ccc(F)cc3)c2=O)cc1 [Cpd 31]	91%	939 nM	–
COc1ccc(Cn2c(NCc3ccc[n+]([O-])c3N)nc(=O)n(Cc3ccc(OC)cc3)c2=O)cc1 [Cpd 32]	78%	1220 nM	–
COc1ccc(Cn2c(=O)nc(NCc3cccnc3N)n(Cc3ccc(O)cc3)c2=O)cc1 [Cpd 33, 6-[(2-Amino-pyridin-3-ylmethyl)-amino]-1-(4-hydroxy-benzyl)-3-(4-methoxy-benzyl)-1H-[1,3,5]triazine-2,4-dione]	95%	49 nM and 77 nM	102%
COc1ccc(Cn2c(NCc3ccccn3)nc(=O)n(Cc3ccc(OC)cc3)c2=O)cc1 [Cpd 39]	92%	63 nM and 82 nM	95%
COc1ccc(Cn2c(NCc3ccncc3)nc(=O)n(Cc3ccc(OC)cc3)c2=O)cc1 [Cpd 41]	72%	1060 nM	–
COc1ccc(Cn2c(NCc3cccnc3N)nc(=O)n(Cc3cccc(OC)c3)c2=O)cc1 [Cpd 42]	49%	> 10000 nM	–
COc1ccc(Cn2c(NCc3cccnc3N)nc(=O)n(Cc3ccccc3)c2=O)cc1 [Cpd 43]	78%	801 nM	–
COc1ccc(Cn2c(NCc3cccnc3N)nc(=O)n(Cc3ccc(C#N)cc3)c2=O)cc1 [Cpd 44]	66%	2020 nM	–
COc1ccc(Cn2c(NCc3cccnc3N)nc(=O)n(Cc3ccc(OC(F)(F)F)cc3)c2=O)cc1 [Cpd 45]	40%	> 10000 nM	–
COc1ccc(Cn2c(NCc3cccnc3N)nc(=O)n(Cc3ccc([N+](=O)[O-])cc3)c2=O)cc1 [Cpd 47]	80%	826 nM	–
C=CCC(c1ccc(OC)cc1)n1c(=O)nc(NCc2cccnc2N)n(Cc2ccc(OC)cc2)c1=O (stereo not shown) [Cpd 48]	75%	956 nM	–
COc1ccc(Cn2c(NCc3cccnc3N)nc(=O)n(Cc3ccc(C(F)(F)F)cc3)c2=O)cc1 [Cpd 49]	64%	3170 nM	–

The next lines start with the values.

inhibition at 10 µM	IC50	Ca^2+ Mobilization % Inh @ 10 μM	Structure (SMILES)
94%	357 nM	–	COc1ccc(Cn2c(NCc3ccc(N)cn3)nc(=O)n(Cc3ccc(Cl)cc3)c2=O)cc1 [Cpd 4]
90%	176 nM	–	COc1ccc(Cn2c(NCc3cncnc3N)nc(=O)n(Cc3ccc(OC)cc3)c2=O)cc1 [Cpd 6]
95%	295 nM	–	COc1ccc(Cn2c(NCc3cc4ccccc4nc3N)nc(=O)n(Cc3ccc(OC)cc3)c2=O)cc1 [Cpd 9]
95%	327 nM	–	CCCNc1ncccc1CNc1nc(=O)n(Cc2ccc(F)cc2)c(=O)n1Cc1ccc(OC)cc1 [Cpd 15]
89%	348 nM	–	CCCCNc1ncccc1CNc1nc(=O)n(Cc2ccc(F)cc2)c(=O)n1Cc1ccc(OC)cc1 [Cpd 16]
95%	177 nM	–	COc1ccc(Cn2c(NCc3cccnc3N3CCOCC3)nc(=O)n(Cc3ccc(OC)cc3)c2=O)cc1 [Cpd 20]
97%	231 nM	–	COc1ccc(Cn2c(NCc3cccnc3N)nc(=O)n(Cc3cc4ccccc4o3)c2=O)cc1 [Cpd 23]
60%	115 nM	–	COc1ccc(Cn2c(NCc3cccnc3N)nc(=O)n(Cc3ccc(SC)cc3)c2=O)cc1 [Cpd 24]
84%	45 nM	–	COc1ccc(Cn2c(NCc3cccnc3N)cc(=O)n(Cc3ccc(OC)cc3)c2=O)cc1 [Cpd 26]
102%	88 nM	–	COc1ccc(Cn2c(NCc3cccnc3NCCN(C)C)nc(=O)n(Cc3ccc(F)cc3)c2=O)cc1 [Cpd 27]
111%	110 nM	–	COc1ccc(Cn2c(NCc3cccnc3NCCO)nc(=O)n(Cc3ccc(F)cc3)c2=O)cc1 [Cpd 29]
98%	81 nM	–	CCCNc1ncccc1CNc1nc(=O)n(Cc2ccc(OC)cc2)c(=O)n1Cc1ccc(OC)cc1 [Cpd 34]
85%	34 nM	–	COc1ccc(Cn2c(=O)nc(NCc3cccnc3N)n(Cc3ccc(OC(F)F)cc3)c2=O)cc1 [Cpd 35, 6-[(2-Amino-pyridin-3-ylmethyl)-amino]-1-(4-difluoromethoxy-benzyl)-3-(4-methoxy-benzyl)-1H-[1,3,5]triazine-2,4-dione]
84%	270 nM	–	COC(=O)c1ccc(Cn2c(NCc3cccnc3N)nc(=O)n(Cc3ccc(OC)cc3)c2=O)cc1 [Cpd 36]
86%	250 nM	–	COc1ccc(Cn2c(=O)nc(NCc3cccnc3N)n(Cc3ccc(NC(C)=O)cc3)c2=O)cc1 [Cpd 37]
91%	391 nM	–	COc1ccc(Cn2c(=O)nc(NCc3cccnc3N)n(Cc3ccc(OC(F)(F)F)cc3)c2=O)cc1 [Cpd 38]
80%	522 nM	–	CCOc1ccc(Cn2c(=O)nc(NCc3cccnc3N)n(Cc3ccc(OC)cc3)c2=O)cc1 [Cpd 46]
